Structures can show the parent of a compound that is named as a salt.
Legend:
[1] = test system: T. cruzi (Tulahuen strain); assay: microbe, parasite or virus in culture; assay type: cell-based, Trypanosoma cruzi; details: Trypanosoma cruzi, TULAHUEN, Fibroblast, 120 h, 10 uM, Table S2; read-out: T. cruzi % growth @ 10 uM (Amastigotes)
Experimental: Compounds were tested against T. cruzi (Tulahuen strain) stably expressing the beta-galactosidase gene as previously described. […] Fibroblasts were plated at a density of 2×10^3 per well in 96 well tissue culture plates. After 24 hours of incubation, 1×10^4 trypomastigotes/well were added to the fibroblasts and incubated for 4 hours before addition of the test compounds from the Spectrum Collection (10 µM final concentration). Cultures were incubated at 37°C for 5 days, then developed with chlorophenol red β-D-galactopyranoside as previously described. The percent inhibition is reported with standard deviation of the mean. […] Z-prime values were calculated for each 96-well plate based on positive (4 wells) and negative controls (4 wells).

[2] = test system: 3T3 fibroblast cells; assay: cells; assay type: cell-based, murine; details: Mus musculus, NIH3T3, 72 h, 10 uM, Table S2; read-out: Mammalian (3T3) cell % growth at 10 uM

Row | Structure (SMILES) | activity at 10 µM [1] | activity at 10 µM [2]
1 | C=CC(C)(O)CCC1C(=C)CC(O)C2C(C)(C)CCCC12C (stereo not drawn) [LARIXOL, 4-(3-hydroxy-3-methylpent-4-en-1-yl)-4a,8,8-trimethyl-3-methylidene-decahydronaphthalen-1-ol] | 6.4% | 74%
2 | CNCCC(Oc1ccc(C(F)(F)F)cc1)c1ccccc1 (stereo not drawn) [Fluoxetine, methyl({3-phenyl-3-[4-(trifluoromethyl)phenoxy]propyl})amine hydrochloride] |  | 100%
3 | C=CC(C1=CC(=O)C(OC)=CC1=O)c1ccc(O)cc1 (stereo not drawn) [DALBERGIONE, 4-METHOXY-4'-HYDROXY-, 2-[1-(4-hydroxyphenyl)prop-2-en-1-yl]-5-methoxycyclohexa-2,5-diene-1,4-dione] | 5.1% | 94.8%
4 | C=C1C2CCC3(C)C(c4ccoc4)OC(=O)CC13OC1CC(OC(C)=O)C(C)(C)C(CC(=O)OC)C12C (stereo not drawn) [methyl 2-[5-(acetyloxy)-13-(furan-3-yl)-6,6,8,12-tetramethyl-17-methylidene-15-oxo-2,14-dioxatetracyclo[7.7.1.0^{1,12}.0^{3,8}]heptadecan-7-yl]acetate] | 1% | 84.1%
5 | C=CC(C1=CC(=O)C=CC1=O)c1ccccc1 (stereo not drawn) [DALBERGIONE, 2-(1-phenylprop-2-en-1-yl)cyclohexa-2,5-diene-1,4-dione] | 12.4% | 97.5%
6 | O=C(CCCN1CCC2(CC1)C(=O)NCN2c1ccccc1)c1ccc(F)cc1 [SPIPERONE, 8-[4-(4-fluorophenyl)-4-oxobutyl]-1-phenyl-1,3,8-triazaspiro[4.5]decan-4-one] | 17.1% | 94.7%
7 | CC(C)c1ccc2c(c1O)CCC1C3=C(CCC21C)C(=O)OC3 (stereo not drawn) [TRIPTOPHENOLIDE, 6-hydroxy-1-methyl-5-(propan-2-yl)-13-oxatetracyclo[8.7.0.0^{2,7}.0^{11,15}]heptadeca-2,4,6,11(15)-tetraen-14-one] | 13.8% | 83.1%
8 | COc1ccc2c(c1)OCC(Cc1ccc(OC)c(OC)c1)C2=O (stereo not drawn) [3-[(3,4-dimethoxyphenyl)methyl]-7-methoxy-3,4-dihydro-2H-1-benzopyran-4-one] | 8.3% | 84.5%
9 | CC(C)CCCC(C)C1CCC2C3CC(=O)C4CC(O)CCC4(C)C3CCC12C (stereo not drawn) [5alpha-CHOLESTAN-3beta-OL-6-ONE, 5-hydroxy-2,15-dimethyl-14-(6-methylheptan-2-yl)tetracyclo[8.7.0.0^{2,7}.0^{11,15}]heptadecan-8-one] | 7.8% | 100%
10 | COC(=O)C1(C)CCCC2(C)c3ccc(C(C)C)cc3C(=O)CC12 (stereo not drawn) [7-OXOC[…], METHYL ESTER, methyl 1,4a-dimethyl-9-oxo-7-(propan-2-yl)-1,2,3,4,4a,9,10,10a-octahydrophenanthrene-1-carboxylate] | 5.1% | 91.8%
11 | CC(C)=CCc1c(O)cc2occ(-c3ccc4c(c3)OCO4)c(=O)c2c1O [DERRUBONE] | 22.8% | 75.4%
12 | CNC1CCC(c2ccc(Cl)c(Cl)c2)c2ccccc21 (stereo not drawn) [Sertraline, 4-(3,4-dichlorophenyl)-N-methyl-1,2,3,4-tetrahydronaphthalen-1-amine hydrochloride] |  | 100%
13 | CCCCc1oc2ccccc2c1C(=O)c1cc(I)c(OCCN(CC)CC)c(I)c1 [Amiodarone, (2-{4-[(2-butyl-1-benzofuran-3-yl)carbonyl]-2,6-diiodophenoxy}ethyl)diethylamine hydrochloride] |  | 86.7%
14 | CN(C)CCCN1c2ccccc2CCc2ccc(Cl)cc21 [Clomipramine, (3-{5-chloro-2-azatricyclo[9.4.0.0^{3,8}]pentadeca-1(15),3,5,7,11,13-hexaen-2-yl}propyl)dimethylamine hydrochloride] |  | 84.6%
